These results are taken from patent US8163702B2, “Treatment of melanoma” (SciClone Pharmaceuticals, Inc., priority 2006, dated 2012).

Molecules are shown by their SMILES.

In one test the test system is B16 melanoma. The experiment in a line: B16 melanoma tumor growth, tumor weight and survival in C57/Bl6 mice, i.p. treatment (Example 1). Format: in vivo. To be noted: for animals surviving: After 26 days. The method, then:
Tumors were induced by injecting 1×10^6 B16 melanoma cells subcutaneously in the hind leg of C57/Bl6 syngeneic mice. Mice were randomized into 5 groups of 10 animals and treated with SCV-07 at doses of 0.001, 0.01, or 0.10 mg/kg administered daily i.p. for 3 consecutive days for 2 weeks, starting 3 days after tumor implantation. Control groups were treated with saline or dacarbazine (DTIC) at a dose of 50 mg/kg i.p. for 3 days. Tumor growth was assessed every 3 days by a caliper and tumor weight was measured upon death.
Mice were injected with B16 melanoma cells and divided into 5 groups of 10 mice each. Control mice were given injections of saline or dacarbazine (DTIC). The effects of different doses of SCV-07 were examined with respect to tumor growth rate and survival time.

The next test has as its system B16 cell line. The test is described as follows: In vitro cell sensitivity: cell proliferation and viability by trypan blue dye exclusion. The format is cell-based, murine. Here is the method: In vitro cell sensitivity studies were performed on a B16 cell line. Subconfluent melanoma cells were harvested, suspended in complete medium and seeded into 24-well plates (10^5 cells in a final volume of 2 ml/well). The cells were treated in triplicate wells for 24, 48 or 72 hr of culture with graded concentrations of SCV-07 ranging from 0.1 to 100 μg/ml. Cell proliferation and viability were determined by the trypan blue dye exclusion method by manually counting the cells with a hemocytometer.

Another test relates to thymocyte and lymphocyte. To be noted: cited from earlier work.
For test [1] the following is noted: 5-FU-immune-suppressed animals; immunization with sheep red blood cells; cited from earlier work.
For a further test, the system named is T helper cells. The following applies: previous studies; cited from earlier work.
Another test has as its system spleen lymphocytes. The following applies: cited from earlier work.
A further test concerns bone marrow cells. The following applies: cited from earlier work.

With `N[C@H](CCC(=O)N[C@@H](Cc1c[nH]c2ccccc12)C(=O)O)C(=O)O` [SCV-07, γ-D-glutamyl-L-tryptophan], the animals surviving in the test on B16 melanoma (SCV-07 highest dose (0.10 mg/kg i.p.)) was 21%; in the test on B16 melanoma (SCV-07 lower doses) it was “no surviving animals”. Further, the “MEAN TUMOR VOLUME” value with B16 melanoma (DAY 10 after tumor inoculation, SCV-07 0.001 mg/kg i.p.) turned out to be 540 ± 180 mm^3; in the test on B16 melanoma (DAY 10 after tumor inoculation, SCV-07 0.01 mg/kg i.p.), 490 ± 120 mm^3; in the test with B16 melanoma (DAY 10 after tumor inoculation, SCV-07 0.10 mg/kg i.p.), 420 ± 150 mm^3; in the test on B16 melanoma (DAY 17 after tumor inoculation, SCV-07 0.001 mg/kg i.p.) it was 625 ± 270 mm^3; with B16 melanoma (DAY 17 after tumor inoculation, SCV-07 0.01 mg/kg i.p.), 581 ± 210 mm^3; in the test on B16 melanoma (DAY 17 after tumor inoculation, SCV-07 0.10 mg/kg i.p.) it was 495 ± 190 mm^3. In addition, the “MEAN TUMOR VOLUME” value came to 880 ± 240 mm^3 with B16 melanoma (DAY 24 after tumor inoculation, SCV-07 0.001 mg/kg i.p.); 720 ± 150 mm^3 in the test on B16 melanoma (DAY 24 after tumor inoculation, SCV-07 0.01 mg/kg i.p.); 533 ± 170 mm^3 in the test with B16 melanoma (DAY 24 after tumor inoculation, SCV-07 0.10 mg/kg i.p.). Also, the tumor growth entry in the test with B16 melanoma (SCV-07 0.001, 0.01, 0.10 mg/kg i.p.) is “inhibited tumor growth in a dose-dependent manner”. Further, the “mean tumor weight lower” value in the test with B16 melanoma (highest dose of SCV-07 (0.10 mg/kg i.p.), weight upon death) worked out at 35%; in the test with B16 melanoma (lower doses of SCV-07 (0.001, 0.01 mg/kg i.p.)), 20%. Besides, the “effect on cell growth by direct cell counts” value in the test on B16 cell line (24 and 48 hrs of culture, 0.1 to 100 μg/ml) is given as “dose-dependent inhibitory effect on cell growth”. In addition, the “effect on number of viable cells” value with B16 cell line (higher concentration (100 μg/ml)) is “toxic effects with a dramatic decrease in the number of viable cells”. The “effect on cell growth” value with B16 cell line (low concentration) is “substantially cytostatic”. The “Con-A-induced thymocyte and lymphocyte proliferation” value with thymocyte and lymphocyte is reported as “increases”. For the same compound, the immunostimulatory effect entry in test [1] is “strong immunostimulatory effect”. Also, the “IFN-γ production by thymic and spleen cells and circulating level in serum” value with T helper cells is listed as “increased”. The “T helper cell polarization” value in the test on T helper cells is given as “stimulates a shift of T helper cells towards a TH1-like immune response”. The “Con-A-induced interleukin-2 (IL-2) production and IL-2 receptor expression” value in the test on spleen lymphocytes is listed as “increases”. For the same compound, the “expression of Thy-1.2” value in the test with bone marrow cells is listed as “stimulates”.
